Measurements from ChEMBL document CHEMBL3400063, “Novel pyrrole carboxamide inhibitors of JAK2 as potential treatment of myeloproliferative disorders” (Bioorg Med Chem, 2015).
Converted amounts (≈) assume the structure as drawn.

Legend:
[1] = Cmax in Balb nu/nu mouse at 10 mg/kg, po by LC/MS/MS analysis; type: ADME, organism-based; parameters: dose 10 mg/kg, route oral; settings: in vivo
[2] = Oral bioavailability in Balb nu/nu mouse at 10 mg/kg by LC/MS/MS analysis; type: ADME, organism-based; settings: in vivo
[3] = Volume of distribution at steady state in Balb nu/nu mouse at 10 mg/kg, iv by LC/MS/MS analysis; type: ADME, organism-based; parameters: dose 10 mg/kg, route intravenous; settings: in vivo, read-out: Vdss
[4] = Cytotoxicity against human SET2 cells expressing JAK2 assessed as growth inhibition after 72 hrs by Cell Titre-Glo assay; type: functional, cell-based; settings: SET-2, 72 h
A2780 = assay: Cytotoxicity against human A2780 cells expressing […] assessed as growth inhibition after 72 hrs by Cell Titre-Glo assay; type: functional, cell-based; settings: A2780, 72 h
Homo sapiens [5] = species on record: Homo sapiens; assay: Selectivity ratio of IC50 for recombinant epitope-tagged JAK3 (781 to 1124) (unknown origin) to IC50 for recombinant epitope-tagged JAK2 (808 to 1132) (unknown origin)
[6] = Cytotoxicity against human DERL7 cells expressing JAK1/3 assessed as growth inhibition after 72 hrs by Cell Titre-Glo assay; type: functional, cell-based; settings: DERL7, 72 h
[7] = Half life in Balb nu/nu mouse at 10 mg/kg, po by LC/MS/MS analysis; type: ADME, organism-based; parameters: dose 10 mg/kg, route oral; settings: in vivo
[8] = AUC (infinity) in Balb nu/nu mouse at 10 mg/kg, po by LC/MS/MS analysis; type: ADME, organism-based; parameters: dose 10 mg/kg, route oral, time infinity; settings: plasma
[9] = AUC (infinity) in Balb nu/nu mouse at 10 mg/kg, iv by LC/MS/MS analysis; type: ADME, organism-based; parameters: time infinity, dose 10 mg/kg, route intravenous; settings: plasma
[10] = Solubility of the compound at pH 7; type: physicochemical; settings: buffer
[11] = Clearance in Balb nu/nu mouse at 10 mg/kg, iv by LC/MS/MS analysis; type: ADME, organism-based; parameters: dose 10 mg/kg, route intravenous; settings: in vivo
[12] = Half life in Balb nu/nu mouse at 10 mg/kg, iv by LC/MS/MS analysis; type: ADME, organism-based; parameters: dose 10 mg/kg, route intravenous; settings: in vivo
[13] = Cmax in Balb nu/nu mouse at 10 mg/kg, iv by LC/MS/MS analysis; type: ADME, organism-based; parameters: dose 10 mg/kg, route intravenous; settings: in vivo
Homo sapiens [14] = species on record: Homo sapiens; assay: Selectivity ratio of IC50 for recombinant epitope-tagged JAK1 (861 to 1152) (unknown origin) to IC50 for recombinant epitope-tagged JAK2 (808 to 1132) (unknown origin)
[15] = biological target: Tyrosine-protein kinase JAK2 (Homo sapiens, UniProt O60674); assay: Inhibition of recombinant epitope-tagged JAK2 (808 to 1132) (unknown origin) using LPLDKDYYVVREPGQ as substrate by beta-countiing analysis in presence of 33P-gamma-ATP
Chain of Tyrosine-protein kinase JAK2 (O60674 whole entry): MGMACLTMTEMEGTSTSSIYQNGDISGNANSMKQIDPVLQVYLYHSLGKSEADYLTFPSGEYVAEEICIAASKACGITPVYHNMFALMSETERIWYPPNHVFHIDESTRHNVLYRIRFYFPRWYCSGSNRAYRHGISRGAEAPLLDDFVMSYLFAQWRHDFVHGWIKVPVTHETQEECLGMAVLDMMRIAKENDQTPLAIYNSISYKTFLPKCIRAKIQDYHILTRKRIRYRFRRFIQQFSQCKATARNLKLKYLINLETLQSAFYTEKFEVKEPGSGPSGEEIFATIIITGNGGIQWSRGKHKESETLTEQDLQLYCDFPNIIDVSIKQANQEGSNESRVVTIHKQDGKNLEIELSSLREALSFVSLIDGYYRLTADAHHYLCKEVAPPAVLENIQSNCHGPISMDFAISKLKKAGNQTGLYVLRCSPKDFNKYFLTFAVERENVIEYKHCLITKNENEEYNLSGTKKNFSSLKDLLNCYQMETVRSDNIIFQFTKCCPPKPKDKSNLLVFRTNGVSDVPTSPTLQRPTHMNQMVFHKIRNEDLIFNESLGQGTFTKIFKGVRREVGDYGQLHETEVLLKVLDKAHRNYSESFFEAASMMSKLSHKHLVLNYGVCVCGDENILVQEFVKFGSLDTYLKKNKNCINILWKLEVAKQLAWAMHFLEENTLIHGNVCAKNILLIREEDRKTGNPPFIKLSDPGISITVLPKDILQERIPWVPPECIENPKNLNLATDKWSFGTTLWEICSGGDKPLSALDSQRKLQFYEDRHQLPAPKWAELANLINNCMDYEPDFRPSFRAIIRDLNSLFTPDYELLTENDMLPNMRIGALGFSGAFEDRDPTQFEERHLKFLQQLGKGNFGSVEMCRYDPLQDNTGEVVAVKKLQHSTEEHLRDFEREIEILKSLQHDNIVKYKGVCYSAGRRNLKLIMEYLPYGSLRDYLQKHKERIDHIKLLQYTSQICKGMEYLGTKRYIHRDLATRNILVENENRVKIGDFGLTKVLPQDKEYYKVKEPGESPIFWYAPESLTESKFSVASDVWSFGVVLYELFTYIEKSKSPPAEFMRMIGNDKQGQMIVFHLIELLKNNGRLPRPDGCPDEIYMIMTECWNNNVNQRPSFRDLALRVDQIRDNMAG

SMILES | IC50 [4] | IC50 (A2780) | Ratio IC50 (Homo sapiens [5]) | IC50 [6] | Ratio IC50 (Homo sapiens [14]) | IC50 [15] | also measured
CCc1ccc(Cl)cc1-n1cc(-c2ncnn3cccc23)cc1C(N)=O | 660 nM | > 10000 nM | 15 | 2140 nM | 7 | – | Cmax [1]: 0.04 µM; bioavailability [2]: 1%; Vd [3]: 5.8 L/kg; half-life [7]: 3.7 h; AUC(0-inf) [8]: 0.07 µM·h; AUC(0-inf) [9]: 8.4 µM·h; solubility [10]: 25 µM (≈ 9.15 µg/mL); clearance [11]: 51 mL/min/kg; half-life [12]: 5.5 h; Cmax [13]: 12.4 µM
Cc1ccc(Cl)cc1-c1cn(-c2ccnc(N)n2)cc1C(N)=O | – | – | – | – | – | 220 nM | –
Cc1ccc(Cl)cc1-n1nc(-c2ccnc(N)n2)cc1C(N)=O | – | – | – | – | – | > 10000 nM | –
CNc1cc(-n2cc(C(N)=O)c(-c3cc(Cl)ccc3C)c2)ncn1 | – | – | – | – | – | 620 nM | –
NC(=O)c1cc(-c2ncnc3[nH]ccc23)cn1-c1cc(C(F)(F)F)ccc1Cl | 60 nM | > 10000 nM | 4 | 150 nM | 4 | – | –
Cc1ccc(Cl)cc1-c1ccc(-c2ccnc(N)n2)[nH]1 | – | – | – | – | – | 972 nM | –
CCc1ccc(Cl)cc1-c1cc(-c2ncnc3[nH]ccc23)[nH]c1C(N)=O | 320 nM | 1600 nM | 7 | 1100 nM | 6 | 3 nM | –
CNc1cc(-c2cc(C(N)=O)n(-c3cc(C(F)(F)F)ccc3Cl)c2)ncn1 | – | – | – | – | – | 331 nM | –
Cc1ccc(Cl)cc1-c1[nH]c(-c2ccnc(N)n2)cc1C(N)=O | 430 nM | – | – | 740 nM | – | – | –
CCc1ccc(Cl)cc1-n1cc(-c2cc(NC)ncn2)cc1C(N)=O | 500 nM | > 10000 nM | 11 | 1720 nM | 9 | – | Cmax [1]: 1.6 µM; bioavailability [2]: 9%; Vd [3]: 1.4 L/kg; half-life [7]: 2.4 h; AUC(0-inf) [8]: 2.9 µM·h; AUC(0-inf) [9]: 37.4 µM·h; solubility [10]: 111 µM (≈ 39.5 µg/mL); clearance [11]: 12 mL/min/kg; half-life [12]: 5.4 h; Cmax [13]: 32 µM
Cc1ccc(Cl)cc1-n1cc(-c2ccnc(N)n2)cc1C(N)=O | – | – | – | – | – | 216 nM | –
Cc1ccc(Cl)cc1-n1cc(-c2ccnc(N)n2)cn1 | – | – | – | – | – | 950 nM | –
